The source of these data is PubChem BioAssay AID602328 (NMMLSC, 2012).

Active and inactive are the calls of the source. No rule for the calls is given here.

This experiment has as its target Botulinum neurotoxin type A (Clostridium botulinum (strain Hall / ATCC 3502 / NCTC 13319 / Type A)) (UniProt P0DPI1). The experiment in a line: inhibition of botulinum toxin A LC cleavage – biochemical, multiplex microsphere flow cytometry, cherry pick 02, dose response (AID 602328). To be noted: BoNT/A LC substrate cleavage. (In general: A flow cytometer gives signals particle by particle.)

Sequence of Botulinum neurotoxin type A (Clostridium botulinum (strain Hall / ATCC 3502 / NCTC 13319 / Type A)) (P0DPI1 whole entry, looked up): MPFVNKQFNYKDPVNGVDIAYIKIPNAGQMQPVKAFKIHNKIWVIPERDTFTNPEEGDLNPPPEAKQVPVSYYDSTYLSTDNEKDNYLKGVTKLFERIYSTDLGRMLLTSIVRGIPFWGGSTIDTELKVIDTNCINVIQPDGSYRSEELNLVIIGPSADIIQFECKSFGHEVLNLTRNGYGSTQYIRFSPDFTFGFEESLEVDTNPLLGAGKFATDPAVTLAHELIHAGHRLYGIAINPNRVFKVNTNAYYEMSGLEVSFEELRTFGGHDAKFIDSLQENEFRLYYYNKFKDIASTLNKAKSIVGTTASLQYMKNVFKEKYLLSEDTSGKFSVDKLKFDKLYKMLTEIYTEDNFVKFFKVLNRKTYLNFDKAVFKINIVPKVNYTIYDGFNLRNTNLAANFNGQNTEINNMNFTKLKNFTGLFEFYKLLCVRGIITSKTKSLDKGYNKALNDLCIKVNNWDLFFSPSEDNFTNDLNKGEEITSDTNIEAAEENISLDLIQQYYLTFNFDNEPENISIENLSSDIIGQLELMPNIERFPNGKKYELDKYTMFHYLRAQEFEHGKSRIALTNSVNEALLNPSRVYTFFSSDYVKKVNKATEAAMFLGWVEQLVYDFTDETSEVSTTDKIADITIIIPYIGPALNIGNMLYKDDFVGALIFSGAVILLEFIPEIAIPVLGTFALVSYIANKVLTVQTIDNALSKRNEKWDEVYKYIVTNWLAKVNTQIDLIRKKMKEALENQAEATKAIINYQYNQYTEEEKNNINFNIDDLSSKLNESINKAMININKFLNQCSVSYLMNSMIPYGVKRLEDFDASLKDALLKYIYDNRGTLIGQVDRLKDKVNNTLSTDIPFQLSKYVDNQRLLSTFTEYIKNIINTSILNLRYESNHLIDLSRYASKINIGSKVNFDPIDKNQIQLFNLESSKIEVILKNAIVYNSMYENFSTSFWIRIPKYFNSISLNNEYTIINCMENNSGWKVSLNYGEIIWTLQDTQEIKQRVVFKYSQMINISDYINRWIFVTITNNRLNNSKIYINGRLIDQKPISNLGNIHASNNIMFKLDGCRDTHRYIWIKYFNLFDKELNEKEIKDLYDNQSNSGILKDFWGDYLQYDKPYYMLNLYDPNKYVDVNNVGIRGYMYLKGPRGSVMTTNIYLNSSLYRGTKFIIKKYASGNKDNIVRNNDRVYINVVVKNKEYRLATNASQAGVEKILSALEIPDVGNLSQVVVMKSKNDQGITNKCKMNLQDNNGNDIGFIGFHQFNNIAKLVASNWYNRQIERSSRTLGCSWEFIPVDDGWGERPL

Take `O=c1c(/C=C(\O)c2ccccc2)nc2ccccc2n1-c1ccccc1`: the IC50 (in general, the midpoint of a concentration-inhibition curve) is > 20 µM (inactive).

As for `Oc1[nH]c(N=C2N=c3ccccc3=N2)c2ccccc12`, the IC50 was > 20 µM (inactive).
